Legend:
[1] = tested on: IL-2; assay: OVA-challenge allergic inflammation model, IL-2 in BALF by ELISA; format: in vivo, mouse; conditions: OVA-challenge in sensitized mice, treated during challenge phase, vs vehicle
Procedure: (§1) Mice were subjected to the OVA-challenge allergic inflammation model and treated with vehicle or SP16 during the challenge phase. The bronchoalveolar lavage fluid (BALF) was analyzed for cytokines via ELISA.
(§2) The ova-induced model of allergic inflammation is a widely used model of eosinophilic driven allergic diseases.

[2] = tested on: CCL26; assay: CCL26 release by esophageal epithelial cells (EPC2); format: cell-based, human
Procedure: (§3) FIG. 12A: Poly I:C-induced TSLP production by SPINK7 knockout EPC2 cells (Human esophageal epithelial cells). SPINK7 KO cells and control cells were plated in high calcium and high density, for 48 hours before being treated with SP16 or 7G and Poly I:C (5 μg/ml, or untreated) for 8 hours. TSLP production in the supernatant was measured by ELISA. FIG. 12B: primary esophageal epithelial cells (EPC2) were treated with SP16 and then stimulated with IL-13, a TH2 response mediated cytokine, to induce CCL26.
(§4) SP16 reduces several key cytokines involved in allergic responses. Upon knockout of SPINK7, esophageal epithelial cells release exacerbated levels of TSLP. TSLP is a key mediator of immune cell responses upon activation to an insult such as allergens.

[3] = tested on: GAP-43 mRNA; assay: RT-qPCR of GAP-43 mRNA in primary cultured adult DRG neurons; format: cell-based, rat; conditions: 240 nM, 24 h, vs vehicle
[4] = tested on: IL-1a; assay: OVA-challenge allergic inflammation model, IL-1a in BALF by ELISA; format: in vivo, mouse; conditions: OVA-challenge in sensitized mice, treated during challenge phase, vs vehicle
Procedure: as §1, §2

[5] = tested on: NFκB; assay: NFκB reporter assay stimulated with LPS (THP1-XBlue-MD2-GD14 reporter cells, SEAP read-out); format: cell-based; conditions: peptide 50 μg/ml before LPS 5 ng/ml, overnight
Procedure: The reporter cells (THP1-XBlue-MD2-GD14 cells) were treated with each peptide (50 μg/ml) before being insulted with LIPS (5 ng/ml) and incubated overnight. The NFκB inducible Secreted Embryonic Alkaline Phosphatase (SEAP) was measured in the supernatant and read for absorbance.

[6] = tested on: TSLP; assay: Poly I:C-induced TSLP production by SPINK7 knockout EPC2 cells (ELISA); format: cell-based, human; conditions: Poly I:C 5 μg/ml, 8 hours
Procedure: as §3, §4

[7] = tested on: phospho-ERK1/2; assay: Cell signaling analysis in PC12 cells, immunoblot of phospho-ERK1/2; format: cell-based, rat
Procedure: Cell signaling analysis: Rat PC12 cells were purchased from ATCC (CRL-1721). PC12 cells were maintained in high glucose DMEM (Gibco, USA) containing 10% heat-inactivated FBS (Gibco, USA), 5% HyClone heat-inactivated horse serum (Cytiva, USA), penicillin (100 units/ml) and streptomycin ([…]) in 6-well plates that were pre-coated with 0.01 mg/ml type IV collagen (Sigma-Aldrich, St. Louis, MO, USA). Cells were transferred to serum-free medium (SFM) 4 h prior to adding effectors, and then treated with SP163M (2.4, 24 or 240 nM); EI-tPA (12 nM), NGF (0.36 nM), or vehicle (PBS) for 10 min. In some cases, cells were pre-incubated with the competitive antagonist of LRP1, GST-RAP (150 nM) for 15 min or electroporated using the Rat Neuron Nucleofector Amaxa Kit (Lonza Biosciences) and incubated with siRNA to silence LRP1 expression (siLRP1; M-094191-01-0010, Dharmacon) for 48 h. Control cells were transfected with non-targeting control (NTC) siRNA (NTC; D-001810-10-05, Dharmacon). Cells were rinsed with ice-cold PBS and proteins were extracted in RIPA buffer (20 mM sodium phosphate, 150 mM NaCl, pH 7.4, 1% Triton X-100, 0.5% sodium deoxycholate, 0.1% SDS) supplemented with protease and phosphatase inhibitors (Roche Diagnostics, USA). After 30 min on ice, lysates were centrifuged at 15000×g for 5 min, supernatant collected and stored at −20° C. Equal amounts of protein from cell lysates (20 μg), as determined by BCA Protein Assay (ThermoFisher Scientific, Waltham, MA, USA), were subjected to 10% SDS-PAGE and electro-transferred to nitrocellulose membranes. The membranes were blocked with 5% nonfat dried milk and then incubated with primary anti-phospho-AKT (Cell Signaling Technology, Danvers, MA, USA; cat #9271S; 1:1000), anti-phospho-ERK1/2 (Cell Signaling Technology, Danvers, MA, USA; cat #9101S; 1:1000), anti-LRP1 (Cell Signaling Technology, Danvers, MA, USA; cat #64099S; 1:1000) or anti total-ERK1/2 (Cell Signaling Technology, Danvers, MA, USA; cat #91012S; 1:1000). Immunoblots were developed using Radiance, Radiance Q, and Radiance Plus chemiluminescent substrates and imaged using a BioRad ChemiDoc Imaging System (Bio-Rad, Hercules, CA, USA).

[8] = tested on: TSLP; assay: MC903 AD model, TSLP in ears and serum by ELISA; format: in vivo, mouse; conditions: topical, vs MC903 treated mice
Procedure: Mice were treated with SP16 in 70% EtOH (MC903+SP16) or drug vehicle (MC903). Normal control (NC) mice were treated with EtOH only. Ears were measured for PAR2 protein expression through western blot analysis (quantitative analysis after normalization to beta-actin shown) (n=3-5). TSLP was measured in both the ears and serum by ELISA (N=3-5). Scratching was assessed over a 3 minute period after a 5-minute acclimatization period and the number of scratches are shown (n=3). IL-4 was measured in ear lysate via ELISA (N=3-5).

Sequence: VKFNKPFVFLMIEQNTK (SP16 peptide core sequence including the LRP1 binding site; listed as Homo sapiens)
- IL-2 in BALF [1]: significantly reduces IL-2
- CCL26 release (text: Poly 1:C mediated) ([2]; primary SPINK7 knockout esophageal cells): effective in significantly reducing Poly 1:C mediated TSLP and CCL26 release
- CCL26 release induced by IL-13 ([2]; primary esophageal epithelial cells (EPC2), SP16 then IL-13): significantly reduced CCL26 release dose dependently
- GAP-43 mRNA [3]: increased GAP-43 mRNA compared to vehicle-treated neurons
- IL-1a in BALF [4]: significantly reduces IL-1a
- NFκB activity (NFκB inducible SEAP in supernatant) [5]: capable of reducing NFκB activity
- Poly I:C mediated TSLP release [6]: effective in significantly reducing Poly 1:C mediated TSLP and CCL26 release
- activation of ERK1/2 over time ([7]; 240 nM, 0-30 min): robustly activated ERK1/2 from 5 to 30 min
- lowest concentration that activated phospho-ERK1/2 ([7]; 10 min, 0-240 nM): 24 nM
- activation of ERK1/2 in cells transfected with NTC siRNA ([7]; 48 h after transfection): ERK1/2 was robustly activated
- local (ear) TSLP [8]: significant reduction in systemic (serum) and local (ear) TSLP
- systemic (serum) TSLP [8]: significant reduction in systemic (serum) and local (ear) TSLP
